What was measured:
Taq polymerase = target: T1, Taq polymerase (Thermus aquaticus, UniProt P19821); experiment: qPCR (GAPDH detection) with dye added directly into the qPCR reaction; assay type: biochemical; conditions: increasing dye in the qPCR reaction, final concentration 0.004%, 0.008%, 0.012%, 0.016%, 0.023%; Jurkat total RNA template
T1 construct: purchased New England Biolabs, Ipswich, MA
Procedure: Dyes at a concentration of 0.0003% in a qPCR mix were found not to inhibit Taq polymerase in a qPCR mix in a manner that was detrimental to the reaction. 5-log dilutions of Jurkat total RNA (1 ug, 100 ng, 10 ng, 1 ng, 100 pg) were used as the template RNA for cDNA synthesis using a commercially available thermostable reverse transcriptase (Luna RT). […] 10 minutes, and 95° C. 1 minute. 1 ul cDNA library was added to a qPCR reaction mixture containing Taq polymerase (Luna® Universal qPCR Master Mix (New England Biolabs, Ipswich, MA)) and specific primers were added to detect glyceraldehyde 3-phosphate dehydrogenase (GAPDH) in the presence of xylene cyanol at a final concentration of 0%, 0.004%, 0.008%, 0.012%, 0.016%, or 0.023%, or Xylene cyanol and tartrazine both in the concentration range described above.

[1] = tested on: reverse transcriptase (Luna RT); experiment: cDNA synthesis with dye in the cDNA reaction, read out by qPCR (GAPDH); assay type: biochemical; conditions: increasing dye in the cDNA reaction, final concentration 0.004%, 0.008%, 0.012%, 0.016%, 0.023%; Jurkat total RNA template
Procedure: 5-log dilutions of Jurkat total RNA (1 ug, 100 ng, 10 ng, 1 ng, 100 pg) were used as the template RNA for cDNA synthesis using Luna RT in the presence of xylene cyanol at a final concentration of 0%, 0.004%, 0.008%, 0.012%, 0.016%, or 0.023%, or Xylene cyanol and tartrazine both in the concentration range described above. […] 10 minutes, and 95° C. 1 minute. 1 ul cDNA library was added to a qPCR reaction mixture containing Taq polymerase and specific primers were added to detect GAPDH.

T1 sequence (P19821 whole entry): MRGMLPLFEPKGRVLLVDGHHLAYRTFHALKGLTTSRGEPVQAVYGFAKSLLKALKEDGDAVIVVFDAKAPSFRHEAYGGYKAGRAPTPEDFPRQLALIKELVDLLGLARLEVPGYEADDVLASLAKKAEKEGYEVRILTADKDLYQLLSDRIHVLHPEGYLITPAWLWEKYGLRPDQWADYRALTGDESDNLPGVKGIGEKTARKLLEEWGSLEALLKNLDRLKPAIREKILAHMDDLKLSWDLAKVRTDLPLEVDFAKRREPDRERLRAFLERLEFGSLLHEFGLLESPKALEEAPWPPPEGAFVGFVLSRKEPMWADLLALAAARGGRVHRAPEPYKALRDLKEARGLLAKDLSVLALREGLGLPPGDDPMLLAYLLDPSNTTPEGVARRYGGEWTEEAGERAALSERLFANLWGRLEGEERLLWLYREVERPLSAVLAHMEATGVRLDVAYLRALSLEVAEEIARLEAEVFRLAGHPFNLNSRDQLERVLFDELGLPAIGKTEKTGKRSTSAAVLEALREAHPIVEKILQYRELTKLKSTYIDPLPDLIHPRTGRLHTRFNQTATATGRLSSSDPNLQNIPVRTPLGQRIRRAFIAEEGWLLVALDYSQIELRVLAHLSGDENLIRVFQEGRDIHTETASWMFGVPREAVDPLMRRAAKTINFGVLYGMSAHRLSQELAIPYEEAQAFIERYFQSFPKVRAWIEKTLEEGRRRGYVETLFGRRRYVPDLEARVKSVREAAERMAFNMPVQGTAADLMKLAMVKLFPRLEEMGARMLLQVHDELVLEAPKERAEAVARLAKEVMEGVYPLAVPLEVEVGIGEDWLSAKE

SMILES: CCN=C1C=CC(=C(c2ccc(NCC)c(C)c2)c2ccc(S(=O)(=O)[O-])cc2S(=O)(=O)O)C=C1C.[Na+] [xylene cyanol]
- Cq value in qPCR / inhibition of Taq polymerase (Taq polymerase): higher Cq value, indicating stronger inhibition of Taq polymerase
- Cq value / inhibition of the reverse transcriptase [1]: did not change the Cq value, indicating that no detectable inhibition of the reverse transcriptase occurred
